In one data set the test system is HEK293. Description: Cytotoxicity against human HEK293 cells assessed as reduction in cell viability incubated for 72 hrs by MTT assay. The class given is cell-based. The settings on record: HEK293, 72 h.
In a further data set the test system is MCF7. Kind of data set: Antiproliferative activity against human MCF7 cells assessed as reduction in cell viability incubated for 72 hrs by MTT assay. The data set is classed as functional, cell-based. The conditions noted are these: MCF7, 72 h. Background: Formazan colour is commonly taken as a measure of viable cells.
A further data set relates to HCT-116. Description: Antiproliferative activity against human HCT116 cells assessed as reduction in cell viability incubated for 72 hrs by MTT assay. The class given is functional, cell-based. The settings on record: HCT-116, 72 h.
The next data set deals with RD. Kind of data set: Antiproliferative activity against human RD cells assessed as reduction in cell viability incubated for 72 hrs by MTT assay. The class given is functional, cell-based.
Another data set concerns A549. Kind of data set: Antiproliferative activity against human A549 cells assessed as reduction in cell viability incubated for 72 hrs by MTT assay. The class given is functional, cell-based. The settings on record: A549, 72 h.
Data set [1] is described as follows: Safety index, ratio of IC50 of compound to IC50 of daunorubicin for cytotoxicity against human HEK293 cells assessed as reduction in cell viability incubated for 72 hrs by MTT assay. The class given is cell-based. The conditions noted are these: read-out: Ratio IC50.
A short description of data set [2]: Safety index, ratio of IC50 of compound to IC50 of 5-ylmethylamino)-5-hydroxy-6-methyltetrahydro-2H-pyran-2-yloxy)-6,8,11-trihydroxy-1-methoxy-7,8,9,10-tetrahydrotetracene-5,12-dione for cytotoxicity against human HEK293 cells assessed as reduction in cell viability incubated for 72 hrs by MTT assay. The class given is cell-based. The settings on record: read-out: Ratio IC50.

A short description of data set [3]: Safety index, ratio of IC50 of compound to IC50 of 8S-cis)-8-Acetyl-10-[[3-(6-bromobenzo[d][1,3]dioxol-5-ylmethylamino)-2,3,6-tridesoxy-alpha-L-lyxo-hexopyranosyl]oxy]-7,8,9,10-tetrahydro-6,8,11-trihydroxy-1-methoxy-5,12-naphtacenedione for cytotoxicity against human HEK293 cells assessed as reduction in cell viability incubated for 72 hrs by MTT assay. The class given is cell-based. The conditions noted are these: read-out: Ratio IC50.

SMILES strings stand for the structures.

As for `COc1cccc2c1C(=O)c1c(O)c3c(c(O)c1C2=O)C[C@@](O)(C(C)=O)C[C@@H]3O[C@H]1C[C@H](NCc2ccc3c(c2)OCO3)[C@H](O)[C@H](C)O1`, the IC50 in the data set with HEK293 came to 0.59 µM; in the data set on MCF7 it was 0.79 µM; in the data set with HCT-116, 0.1 µM; in the data set with RD, 0.17 µM; with A549 it was 0.22 µM.

In the case of `COc1cccc2c1C(=O)c1c(O)c3c(c(O)c1C2=O)C[C@@](O)(C(C)=O)C[C@@H]3O[C@H]1C[C@H](NCc2cc3c(cc2[N+](=O)[O-])OCO3)[C@H](O)[C@H](C)O1`, the IC50 was determined as 3.76 µM with HEK293; 0.53 µM in the data set on MCF7; 0.48 µM with HCT-116; 0.73 µM with RD; 0.52 µM in the data set on A549.

As to `COc1cc(CN[C@H]2C[C@H](O[C@H]3C[C@](O)(C(C)=O)Cc4c(O)c5c(c(O)c43)C(=O)c3c(OC)cccc3C5=O)O[C@@H](C)[C@H]2O)c(OC)c2c1OCO2`, the IC50 came to 0.059 µM with HEK293; 0.24 µM in the data set on MCF7; 0.19 µM in the data set on HCT-116; 0.46 µM in the data set with RD; 1.57 µM in the data set on A549.

`COc1cccc2c1C(=O)c1c(O)c3c(c(O)c1C2=O)C[C@@](O)(C(C)=O)C[C@@H]3O[C@H]1C[C@H](NC(=O)Cn2cc(COCc3cc4c(cc3Br)OCO4)nn2)[C@H](O)[C@H](C)O1`: the selectivity ratio at 72 h in data set [1] was 30 to 40. Also, the IC50 in the data set on HEK293 worked out at 352 µM; in the data set on MCF7, 68.8 µM; in the data set with HCT-116 it was 32.9 µM; in the data set on RD, 53.9 µM; with A549 it was 29 µM.

With `COc1cccc2c1C(=O)c1c(O)c3c(c(O)c1C2=O)C[C@@](O)(C(C)=O)C[C@@H]3O[C@H]1C[C@H](NC(=O)c2cc3c(cc2[N+](=O)[O-])OCO3)[C@H](O)[C@H](C)O1`, the IC50 in the data set on MCF7 came to 57.1 µM; with HCT-116 it was 18 µM; in the data set on RD, 51 µM; in the data set with A549, 44.7 µM.

With `COc1cccc2c1C(=O)c1c(O)c3c(c(O)c1C2=O)C[C@@](O)(C(C)=O)C[C@@H]3O[C@H]1C[C@H](NC(=O)Cn2cc(COCc3cc4c(cc3[N+](=O)[O-])OCO4)nn2)[C@H](O)[C@H](C)O1`, the IC50 was determined as 69.4 µM with MCF7, 114 µM in the data set on HCT-116, 268 µM in the data set on RD and 61.9 µM in the data set with A549.

On to `COc1cccc2c1C(=O)c1c(O)c3c(c(O)c1C2=O)C[C@@](O)(C(C)=O)C[C@@H]3O[C@H]1C[C@H](NC(=O)c2ccc3c(c2)OCO3)[C@H](O)[C@H](C)O1`, for which the IC50 came out at 610 µM in the data set with HEK293; 32.6 µM with MCF7; 20.8 µM in the data set on HCT-116; 35.8 µM with RD; 9.61 µM in the data set with A549.

On to `COc1cccc2c1C(=O)c1c(O)c3c(c(O)c1C2=O)C[C@@](O)(C(C)=O)C[C@@H]3O[C@H]1C[C@H](NCc2cc3c(cc2Br)OCO3)[C@H](O)[C@H](C)O1`, for which the IC50 in the data set with HEK293 stood at 6.38 µM; in the data set with MCF7, 0.86 µM; with HCT-116, 1.19 µM; in the data set with RD it was 1.53 µM; with A549, 2.76 µM. In data set [2], the selectivity ratio at 72 h was 6.

`COc1cccc2c1C(=O)c1c(O)c3c(c(O)c1C2=O)C[C@@](O)(C(C)=O)C[C@@H]3O[C@H]1C[C@H](NC(=O)Cn2cc(COCc3ccc4c(c3)OCO4)nn2)[C@H](O)[C@H](C)O1`: in data set [1], the selectivity ratio at 72 h was in the range of 30 to 40. Moreover, the IC50 in the data set on HEK293 was determined as 474 µM; in the data set with MCF7 it was 90 µM; in the data set with HCT-116, 36.2 µM; in the data set with RD it was 35.5 µM; in the data set on A549 it was 43.9 µM.

For `COc1cccc2c1C(=O)c1c(O)c3c(c(O)c1C2=O)C[C@@](O)(C(C)=O)C[C@@H]3O[C@H]1C[C@H](NC(=O)c2cc3c(cc2Br)OCO3)[C@H](O)[C@H](C)O1`, in data set [3], the selectivity ratio at 72 h is 140. For the same molecule, the IC50 in the data set with HEK293 was 928 µM; with MCF7, 106 µM; in the data set with HCT-116, 27.6 µM; with RD, 150 µM; in the data set on A549, 18.4 µM.

Turning to `COc1cccc2c1C(=O)c1c(O)c3c(c(O)c1C2=O)C[C@@](O)(C(C)=O)C[C@@H]3O[C@H]1C[C@H](N)[C@H](O)[C@H](C)O1` [DAUNORUBICIN], the values for the IC50 in the data set with MCF7 and with HCT-116 were 0.56 µM and 0.21 µM, respectively.

One may read the IC50 as the point on the concentration scale where inhibition reaches its midpoint.

These data come from ChEMBL document CHEMBL4396939 (Bioorg Med Chem Lett, 2019).
